Two compounds from patent US5236929A, “Compound UCA1064-B” (Kyowa Hakko Kogyo Co., Ltd., priority 1991, dated 1993) can be followed below.

In brackets after ≈: the same amount, converted by molar mass.

Data set [1] deals with Mouse mammary cancer SC-4. In words: Anti-tumor activity against mouse mammary cancer SC-4 in BALB/c nu/nu nude mice. As to conditions: once a day, five days after start. The data set is classed as in vivo. The procedure:
Mouse mammary cancer SC-4 (8 mm^3) was subcutaneously implanted into BALB/c nu/nu nude mice (5-weeks-old, male) at ventral side using a trockar.
After the volume of the tumor reached 100-300 mm^3, UCA1064-B was subcutaneously administered near the tumor at a dose of 15 mg/kg once a day for 4 days. UCA1064-B was administered in the form of a suspension, which was prepared by triturating 10 mg of UCA1064-B with 20 μl of Tween 80 and then suspending the compound in 0.3% carboxymethyl cellulose (CMC).
For comparison, 100 mg/kg of cortisone was subcutaneously administered once a day for 5 days in a similar manner.
Five days after the start of administration, the anti-tumor activity was determined as T/C (T: the volume of the tumor of the test group, C: the volume of the tumor of the control group).

A further data set concerns BALB 3T3/H-ras cells. In words: Growth inhibition against BALB 3T3 cells transformed by the oncogene H-ras (Giemsa staining). The data set is classed as cell-based. On the procedure:
(B) Growth Inhibition Against BALB 3T3 Cells Transformed by the Oncogene H-Ras (Hereinafter Referred to as BALB 3T3/H-Ras Cells)
A BALB 3T3/H-ras cell suspension (3×10^4 cells/ml) prepared by suspending BALB 3T3/H-ras cells in a medium comprising DME medium (Nissui Pharmaceutical Co, Ltd.) and 10% fetal calf serum (hereinafter referred to as Medium A) was put into wells of a 96-well microtiter plate in an amount of 0.1 ml per well. After the plate was incubated at 37° C. for 20 hours in a CO2 -incubator, 0.1 ml of a sample of UCA1064-B appropriately diluted with Medium A was added to each well. The cells were further incubated at 37° C. for 72 hours in the CO2 -incubator. After the culture supernatant was removed, the residue was washed once with physiological saline and then treated with 0.1 ml of methanol for 10 minutes to fix the cells. […] After the staining solution was removed, the residue was washed once with 0.2 ml of water. Then, the dye was extracted with 0.2 ml of 0.1N hydrochloric acid and absorbance was measured at 620 nm with a microplate reader.

The nature of another data set: Solubility. The data set is classed as physicochemical.
The subject of another data set is Candida krusei MTU12041. In words: Antibacterial and antifungal activity, agar dilution method. The data set is classed as cell-based. As to conditions: Pichia kudriavzevii, pH 7, read-out: Minimum Inhibitory Concentration (MIC). On the procedure:
(§1) The minimum inhibitory concentration (MIC) of UCA1064-B against various bacteria and fungi was determined by the agar dilution method using a medium (pH 7) prepared by dissolving 3 g of Bacto-Tryptone (Difco Laboratories), 3 g of meat extract, 1 g of yeast extract, 1 g of glucose and 16 g of agar in 1 liter of water.

Data set [2] relates to Bacillus subtilis No. 10707. The data set is described as above. The data set is classed as cell-based. As to conditions: pH 7, read-out: Minimum Inhibitory Concentration (MIC). The procedure:
as §1

Data set [3] relates to Saccharomyces cerevisiae MTU09001. Described as above. The data set is classed as cell-based. As to conditions: pH 7, read-out: Minimum Inhibitory Concentration (MIC). The procedure: as §1
Data set [4] relates to Enterococcus faecium ATCC10541. Described as above. The data set is classed as cell-based. The note with it: pH 7, read-out: Minimum Inhibitory Concentration (MIC). On the procedure:
as §1

The test system of data set [5] is Klebsiella pneumoniae ATCC10031. Described as above. The data set is classed as cell-based. As to conditions: pH 7, read-out: Minimum Inhibitory Concentration (MIC). On the procedure: as §1
The test system of data set [6] is Salmonella typhi ATCC9992. Described as above. The data set is classed as cell-based. As to conditions: Salmonella enterica, pH 7, read-out: Minimum Inhibitory Concentration (MIC). On the procedure: as §1
In data set [7] the test system is Staphylococcus aureus ATCC6538P. Described as above. The data set is classed as cell-based. The note with it: pH 7, read-out: Minimum Inhibitory Concentration (MIC). The procedure: as §1

For the compound `C[C@]12CCC(=O)C=C1CC[C@@H]1[C@@H]2C(=O)C[C@@]2(C)[C@H]1CC[C@]2(O)C(=O)CO` [Cortisone, reference compound], the “T/C (tumor volume of test group / control group)” value in data set [1] (100 mg/kg × 5, subcutaneous, **P < 0.05 (Mann-Whitney U test)) was determined as 0.39.
The term IC50 denotes the concentration that inhibits the measured activity by half. In the data set on BALB 3T3/H-ras cells (Mus musculus, BALB/3T3, 72 hours, 37° C.), `CC(C)C(C)CCC(C)C1CCN=C2C3=C(CCC21C)C1(C)CCC(O)CC1CC3` (stereo not shown) [UCA1064-B] showed an IC50 of 3.5 µg/mL (≈ 8.46 µM). In addition, the “growth of cancer cells (conclusion in words)” value with BALB 3T3/H-ras cells (summary of the results shown (Tables 2 and 3)) is reported as “inhibits the growth of cancer cells”. For the same compound, in data set [1] (15 mg/kg × 4, subcutaneous near the tumor, *P < 0.01 (Mann-Whitney U test)), the “T/C (tumor volume of test group / control group)” value is 0.49. Besides, the Solubility entry in “Solubility” (alcohol, acetone, ethyl acetate and chloroform) is “soluble in alcohol, acetone, ethyl acetate and chloroform”; in “Solubility” (water and hexane), “insoluble in water and hexane”. Also, the MIC in the data set with Candida krusei MTU12041 is 0.78 µg/mL (≈ 1.89 µM); in [2], 20 µg/mL (≈ 48.3 µM); in data set [3] it was 0.39 µg/mL (≈ 0.943 µM); in data set [4], 40 µg/mL (≈ 96.7 µM); in [5], over 100 µg/mL; in data set [6], over 100 µg/mL. The MIC in [7] was 20 µg/mL (≈ 48.3 µM).
